{"source": "paper PMC6964270", "about": "“Co-Prodrugs of 7-Ethyl-10-hydroxycamptothecin and Vorinostat with in Vitro Hydrolysis and Anticancer Effects” (ACS Omega, 2019)", "key": {"A549 cell line": {"system": "A549 cell line", "assay": "In vitro cytotoxicity, SRB assay, A549", "type": "cell-based", "conditions": "Homo sapiens, 72 h, three independent determinations, read-out: IC50 (mean ± SD) A549"}, "HCT116 cell line": {"system": "HCT116 cell line", "assay": "In vitro cytotoxicity, SRB assay, HCT116", "type": "cell-based", "conditions": "Homo sapiens, HCT-116, 72 h, three independent determinations, read-out: IC50 (mean ± SD) HCT-116"}, "[1]": {"assay": "In vitro degradation and release of co-prodrugs in PBS pH 7.4 (HPLC)", "type": "physicochemical", "conditions": "pH 7.4 PBS, 37 °C; for formation percentage of SN38: 24 h later", "protocol": "(§1) Chromatographic detection was carried out by using Agilent 1200 high-performance liquid chromatography (HPLC, Agilent, Palo Alto, CA) with a Diamonsil C18 (250 mm × 4.6 mm) column. The detection was conducted at 254 nm (UV detector) with the column temperature at room temperature. The sample volume for each injection was 50 μL. The gradient elution was applied with a mobile phase of acetonitrile (ACN) containing 0.1% formic acid and water containing 0.1% formic acid with a constant flow rate of 1 mL/min: 0–15 min (5% ACN to 95% ACN), 15–25 min (95% ACN). The external standard method was established by HPLC in order to determine the content of each compound.\nSN38-SAHA co-prodrug solutions with a concentration of 100 μM/L were diluted to 0.05 μM/L with 10 mM PBS buffer (pH 7.4/6.0). After incubation at 37 °C for 0.5, 1, 2, 3, 4, 6, 12, 24, and 48 h, the areas of SN38-SAHA co-prodrugs and other species were detected by HPLC as well. Then each compound was calculated by the concentration–area standard curve, which was obtained by the external standard method."}, "[2]": {"assay": "In vitro degradation and release of co-prodrugs in human plasma (HPLC)", "type": "in vitro ADME", "conditions": "male, 37 °C, read-out: t1/2 of co-prodrug in plasma (converted)", "source_text": "SAHA was synthesized before. SN-38 was purchased from Shanghai Puyi Chemical Co., Ltd. Di-tert-butyl dicarbonate ((Boc)2O), 4-dimethylaminopyridine (DMAP), 1,1′-carbonyl-diimidazole (CDI), and N,N′-diisopropylcarbodiimide (DIC) were all purchased from Energy Chemical Reagent Co. ( Shanghai, China). The different amino acids were purchased from Meryer Chemical Reagent Co. (Shanghai, China). CH2Cl2 was dried and redistilled before use. All chemical reagents used were of analytical-grade quality. Mouse plasma was taken from KM mouse (male, 6 weeks old). Human plasma was donated by an adult.\nas §1\nSN38-SAHA co-prodrug solutions with a concentration of 100 μM/L were diluted to 0.1 μM/L by plasma (human/mouse). After incubation at 37 °C for 0.5, 1, 2, 3, 4, and 6 h, 50 μL of reaction mixture was quenched with 50 μL of cold ACN and centrifuged at 30000 rpm × 5 min. The supernatant (50 μL) was detected by HPLC. Then each compound was calculated by the concentration–area standard curve, which was obtained by the external standard method."}}}
{"smiles": "CCc1c2c(nc3ccc(O)cc13)-c1cc3c(c(=O)n1C2)COC(=O)[C@@]3(CC)OC(=O)CCCCCNC(=O)ONC(=O)CCCCCCC(=O)Nc1ccccc1", "note": "[3d]", "values": [{"measurement": "IC50", "setting": "A549 cell line", "result": "3100 ± 116", "unit": "nM"}, {"measurement": "IC50", "setting": "HCT116 cell line", "result": "3010 ± 251", "unit": "nM"}, {"measurement": "formation percentage of SN38", "setting": "[1]", "result": "almost have no SN38 generated"}, {"measurement": "half-life at 0.1 μM/L", "setting": "[2]", "result": 5, "unit": "h"}]}
{"smiles": "CCc1c2c(nc3ccc(O)cc13)-c1cc3c(c(=O)n1C2)COC(=O)[C@@]3(CC)OC(=O)CCNC(=O)ONC(=O)CCCCCCC(=O)Nc1ccccc1", "note": "[3b]", "values": [{"measurement": "IC50", "setting": "A549 cell line", "result": "322 ± 32.5", "unit": "nM"}, {"measurement": "IC50", "setting": "HCT116 cell line", "result": "428 ± 20.5", "unit": "nM"}, {"measurement": "formation percentage of SN38", "setting": "[1]", "result": 3.4, "unit": "%"}, {"measurement": "half-life at 0.1 μM/L", "setting": "[2]", "result": 3, "unit": "h"}]}
{"smiles": "CCc1c2c(nc3ccc(O)cc13)-c1cc3c(c(=O)n1C2)COC(=O)[C@@]3(CC)OC(=O)CCCNC(=O)ONC(=O)CCCCCCC(=O)Nc1ccccc1", "note": "[3c]", "values": [{"measurement": "IC50", "setting": "A549 cell line", "result": "663 ± 24.3", "unit": "nM"}, {"measurement": "IC50", "setting": "HCT116 cell line", "result": "760 ± 30.9", "unit": "nM"}, {"measurement": "formation percentage of SN38", "setting": "[1]", "result": "almost have no SN38 generated"}, {"measurement": "half-life at 0.1 μM/L", "setting": "[2]", "result": 5, "unit": "h"}]}
{"smiles": "CCc1c2c(nc3ccc(O)cc13)-c1cc3c(c(=O)n1C2)COC(=O)[C@]3(O)CC", "note": "[SN38, 7-Ethyl-10-hydroxycamptothecin]", "values": [{"measurement": "IC50", "setting": "A549 cell line", "result": "45.4 ± 4.7", "unit": "nM"}, {"measurement": "IC50", "setting": "HCT116 cell line", "result": "55.1 ± 10", "unit": "nM"}]}
{"smiles": "CCc1c2c(nc3ccc(O)cc13)-c1cc3c(c(=O)n1C2)COC(=O)[C@@]3(CC)OC(=O)CNC(=O)ONC(=O)CCCCCCC(=O)Nc1ccccc1", "note": "[3a]", "values": [{"measurement": "IC50", "setting": "A549 cell line", "result": "87.3 ± 7.9", "unit": "nM"}, {"measurement": "IC50", "setting": "HCT116 cell line", "result": "113 ± 10.8", "unit": "nM"}, {"measurement": "half-life at 0.05 μM/L", "setting": "[1]; PBS buffer, read-out: half-life (t1/2) of co-prodrug in PBS (converted)", "result": 2, "unit": "h"}, {"measurement": "formation percentage of SN38", "setting": "[1]", "result": 26.3, "unit": "%"}, {"measurement": "half-life at 0.1 μM/L", "setting": "[2]", "result": 1, "unit": "h"}]}
